≈ marks a conversion by molar mass, not a printed value. Like-named read-outs stand apart in the source and are kept apart here.
Legend:
[1] = tested on: E. coli DH-5987; assay: Broth microdilution MIC/MBC; format: cell-based, Escherichia coli; conditions: E. coli DH-5987; for MBC/MIC: value in brackets; for MIC: Escherichia coli, DH5987, 24 h, read-out: MIC (Mean ± SEM)
Experimental: (§1) The broth microdilution method was taken as a basis to detect the MICs of pyrazole compounds against tested clinical isolates, according to the Clinical Laboratory and Standards Institute guidelines. The broth cultures were used to prepare the bacterial inoculums, and the suspensions were adjusted to the standard 0.5 McFarland turbidity. Stock solutions of the synthesized pyrazoles were prepared in pure DMSO and further serially diluted with TS broth in the concentration range from 128 µg/mL to 0.0625 µg/mL. A well containing noninoculated TS broth, free of any antimicrobial agents, was also included to ensure the medium sterility, while Erythromycin and Amikacin served as positive controls. Bacterial growth was determined by adding 20 µL of 0.5% TTC (2,3,5-triphenyltetrazolium chloride) aqueous solution. […] All experiments were repeated three times. The bactericidal effect from each concentration of the pyrazole and pyrazolo[1,5-a]pyrimidine derivatives showing growth inhibition was further studied. For this study, a loopful of 5 µL was taken from each no-visible growth tube and streaked onto plates of TS agar.

[2] = tested on: E. faecalis DH-5478; assay: Broth microdilution MIC/MBC; format: cell-based, Enterococcus faecalis; conditions: for MIC: Enterococcus faecalis, DH5478, 24 h, read-out: MIC (Mean ± SEM); for MBC/MIC: value in brackets
Experimental: as §1

[3] = tested on: A. baumannii DH-243; assay: Broth microdilution MIC/MBC; format: cell-based, Acinetobacter baumannii; conditions: for MIC: Acinetobacter baumannii, DH243, 24 h, read-out: MIC (Mean ± SEM); for MBC/MIC: value in brackets
Experimental: as §1

[4] = tested on: S. pyogenes DH-3467; assay: Broth microdilution MIC/MBC; format: cell-based, Streptococcus pyogenes; conditions: for MIC: Streptococcus pyogenes, DH3467, 24 h, read-out: MIC (Mean ± SEM); for MBC/MIC: value in brackets
Experimental: as §1

[5] = tested on: S. aureus DH-432; assay: Agar well-diffusion assay; format: cell-based; conditions: Staphylococcus aureus
Experimental: (§2) The synthesized compounds were initially screened for their in vitro antibacterial activity against the different Gram-positive and Gram-negative bacteria, tested using the agar well-diffusion assay. The turbidity of the bacterial suspensions was established to the 0.5 McFarland turbidity standard. The activity was performed on TS agar plates. The bacteria were spread on the surface of the agar plates, and 10 mm wells were screwed into the agar plates. The assay was performed under aseptic conditions. An aliquot of 50 µL of each tested compound (10 mM) was added to the wells, and the plates were incubated overnight at 37 °C. Both Erythromycin and Amikacin antibiotic disks were used as positive control, while DMSO solvent was used as a negative control in this study. The diameters of inhibition zones were measured and recorded in mm. A comparative study of the synthesized compounds was determined. The experiment was performed in triplicates.

[6] = tested on: E. coli DH-5987; assay: Agar well-diffusion assay; format: cell-based; conditions: Escherichia coli, DH5987, 50 µL of 10 mM per well, read-out: Diameter of Inhibition Zones (AZOI)
Experimental: as §2

[7] = tested on: E. faecalis DH-5478; assay: Agar well-diffusion assay; format: cell-based; conditions: Enterococcus faecalis
Experimental: as §2

[8] = tested on: S. pyogenes DH-3467; assay: Agar well-diffusion assay; format: cell-based; conditions: Streptococcus pyogenes
Experimental: as §2

[9] = tested on: A. baumannii DH-243; assay: Agar well-diffusion assay; format: cell-based; conditions: Acinetobacter baumannii, DH243; A. baumannii DH-243; 50 µL of 10 mM per well; read-out: Diameter of Inhibition Zones (AZOI)
Experimental: as §2

[10] = tested on: P. aeruginosa DH-5698; assay: Broth microdilution MIC/MBC; format: cell-based, Pseudomonus aeruginosa; conditions: for MIC: Pseudomonas aeruginosa, DH5698, 24 h, read-out: MIC (Mean ± SEM); for MBC/MIC: value in brackets
Experimental: as §1

[11] = tested on: S. aureus DH-432; assay: Broth microdilution MIC/MBC; format: cell-based, Staphylococcus aureus; conditions: for MIC: Staphylococcus aureus, DH432, 24 h, read-out: MIC (Mean ± SEM); for MBC/MIC: value in brackets
Experimental: as §1

[12] = tested on: P. aeruginosa DH-5698; assay: Agar well-diffusion assay; format: cell-based, Pseudomonus aeruginosa; conditions: Pseudomonas aeruginosa, DH5698; P. aeruginosa DH-5698; 50 µL of 10 mM per well; read-out: Diameter of Inhibition Zones (AZOI)
Experimental: as §2

[13] = tested on: Gram-positive isolates; assay: Broth microdilution MIC/MBC, summary; format: cell-based; conditions: Gram-positive isolates (E. faecalis, S. aureus, S. pyogenes)
Experimental: as §1

[14] = DH432, S. aureus DH-432, 50 µL of 10 mM per well, read-out: Diameter of Inhibition Zones (AZOI)
[15] = DH5478, E. faecalis DH-5478, 50 µL of 10 mM per well, read-out: Diameter of Inhibition Zones (AZOI)
[16] = DH3467, S. pyogenes DH-3467, 50 µL of 10 mM per well, read-out: Diameter of Inhibition Zones (AZOI)

Row | SMILES | MBC/MIC [1] | MIC [1] [µg/mL] | MIC [2] [µg/mL] | MBC/MIC [2] | MIC [3] [µg/mL] | MBC/MIC [3] | MIC [4] [µg/mL] | MBC/MIC [4] | zone of inhibition at 10000 µM [5, 14] [mm] | zone of inhibition at 10000 µM [6] [mm] | zone of inhibition at 10000 µM [7, 15] [mm] | zone of inhibition at 10000 µM [8, 16] [mm] | zone of inhibition at 10000 µM [9] [mm] | melting point [°C] | MIC [10] [µg/mL] | MBC/MIC [10] | MIC [11] [µg/mL] | MBC/MIC [11] | zone of inhibition at 10000 µM [12] [mm] | also measured
1 | CCOC(=O)c1ccc(N=Nc2c(N)nn3c(N)c(C#N)c(-c4ccc(OC)cc4)nc23)cc1 [Compound 9b, Ethyl-4-((2,7-diamino-6-cyano-5-(4-methoxyphenyl)pyrazolo[1,5-a]pyrimidin-3-yl)diazenyl)benzoate] | 0.5 | 1 ± 0.3 (≈ 2.19 µM) | 2 ± 0.2 (≈ 4.38 µM) | 1 | 2 ± 0.1 (≈ 4.38 µM) | 1 | 2 ± 0.3 (≈ 4.38 µM) | 0.5 | 25 | 26.5 | 24.3 | 25.7 | 23 | 210 to 212 | 1.5 ± 0.2 (≈ 3.29 µM) | 0.5 | 1.5 ± 0.2 (≈ 3.29 µM) | 1 | 25.4 | –
2 | CCOC(=O)c1ccc(N=Nc2c(N)nn3c(N)c(C#N)c(-c4ccc(Cl)cc4)nc23)cc1 [Compound 9c, Ethyl-4-((2,7-diamino-5-(4-chlorophenyl)-6-cyanopyrazolo[1,5-a]pyrimidin-3-yl)diazenyl)benzoate] | 1 | 1 ± 0.3 (≈ 2.17 µM) | 4 ± 0.2 (≈ 8.68 µM) | 1 | 4 ± 0.4 (≈ 8.68 µM) | 1 | 2 ± 0.1 (≈ 4.34 µM) | 1 | 24.2 | 25.2 | 23.1 | 23.5 | 23.9 | 288 to 290 | 2 ± 0.2 (≈ 4.34 µM) | 1 | 2 ± 0.3 (≈ 4.34 µM) | 1 | 24.1 | –
3 | CCOC(=O)c1ccc(N=Nc2c(N)nn3c(O)c(C#N)c(-c4ccc(Cl)cc4)nc23)cc1 [Compound 10b, Ethyl 4-((2-amino-5-(4-chlorophenyl)-6-cyano-7-hydroxypyrazolo[1,5-a]pyrimidin-3-yl)diazenyl)benzoate] | 0.5 | 0.75 ± 0.1 (≈ 1.62 µM) | 2 ± 0.3 (≈ 4.33 µM) | 1 | 2 ± 0.2 (≈ 4.33 µM) | 1 | 1.5 ± 0.2 (≈ 3.25 µM) | 0.5 | 26.8 | 27.1 | 25.1 | 26.3 | 24.2 | 270 to 272 | 1.5 ± 0.1 (≈ 3.25 µM) | 0.5 | 1.5 ± 0.3 (≈ 3.25 µM) | 0.5 | 26.3 | –
4 | CC[C@H]1OC(=O)[C@H](C)[C@@H](O[C@H]2C[C@@](C)(OC)[C@@H](O)[C@H](C)O2)[C@H](C)[C@@H](O[C@@H]2O[C@H](C)C[C@H](N(C)C)[C@H]2O)[C@](C)(O)C[C@@H](C)C(=O)[C@H](C)[C@@H](O)[C@]1(C)O [E, Erythromycin, reference compound] | – | – | 32 ± 0.1 (≈ 43.6 µM) | 4 | – | – | 64 ± 0.3 (≈ 87.2 µM) | 2 | – | – | – | – | – | – | – | – | 8 ± 0.2 (≈ 10.9 µM) | 2 | – | MBC ([13]; read-out: MBC): 16 to 128 µg/mL (≈ 21.8 to 174 µM); MIC ([13]; read-out: MIC): 8 to 64 µg/mL (≈ 10.9 to 87.2 µM); zone of inhibition at 10000 µM ([5]; DH432, read-out: Diameter of Inhibition Zones (AZOI)): 12 mm; zone of inhibition at 10000 µM ([7]; DH5478, read-out: Diameter of Inhibition Zones (AZOI)): 11 mm; zone of inhibition at 10000 µM ([8]; DH3467, read-out: Diameter of Inhibition Zones (AZOI)): 10.5 mm

— paper PMC9854762, “Antibiofilm and Anti-Quorum-Sensing Activities of Novel Pyrazole and Pyrazolo[1,5-a]pyrimidine Derivatives as Carbonic Anhydrase I and II Inhibitors: Design, Synthesis, Radiosterilization, and Molecular Docking Studies” (Antibiotics, 2023)
